# Data reported in patent publication US11123351B2, “Pharmaceutical formulation of 3-alpha-ethynyl-3-beta-hydroxyandrostan-17-one oxime” (priority 2017, dated 2021).
# What was measured:
# GABA-A receptor [1] = test: Antagonist study: allopregnanolone-induced decrease in maximal saccadic eye velocity (SEV); type: in vivo, human; conditions: responding subjects, responsive period
# Description: (§1) The antagonist study, with the purpose of evaluating the biological activity of the IND compound, (EudraCT 2015-004911-19) was randomized and placebo-controlled with a double-blind three-part cross-over design. Study subjects orally received: placebo (A); 3 mg of IND formulation (B); or 30 mg of IND formulation (C); followed 90 minutes later by an intravenous (i.v.) allopregnanolone injection (0.05 mg/kg) and repeated measurements of maximal saccadic eye velocity (SEV) (Saccadometer Plus, Ober Consulting Sp. z o.o, Poland) and sedation/somnolence (visual analogue scale graded from “Absence of sleepiness” to “Falling asleep) for three hours.
# [2] = Solubility of Compound I in different vehicles (visual inspection); type: physicochemical
# Description: The sample was heated, if required to melt the vehicle, to approx. from 15° C.-80° C. and agitated by vortex or stirrer.
# Addition was continued until a clear solution was not longer obtained after mixing.
# Glycerol monooleate [Cithrol GMO from Croda Health Care] was melted at 50° C. […] The sample was heated and agitated by vortex.
# (0.91 g). The sample was heated to approx. 40° C. and agitated by vortex.
# The sample was agitated by vortex at room temperature.
# The material was stirred at least 30 minutes between each addition.
# Upon completed dissolution the temperature was decreased to 30° C. and the solution was filled in hard gelatin capsules of size 0. The target fill weight was 500 mg where after the capsules were capped and kept at −20° C. for 2-3 hours before storage in refrigerator.
# [3] = Clinical Phase I single ascending dose (SAD) study, pharmacokinetics and safety; type: in vivo, human
# Description: (§2) In total 90 eligible healthy consenting male subjects (age 18-50 years) were included in the study. The oral formulation used was a capsule containing a lipid solution of 3α-ethynyl-3β-hydroxyandrostan-17-one oxime formulated according to Example 10 above (IND formulation in the following).
# (§3) The first in human single ascending dose (SAD) study (EudraCT 2015-004911-19) and the 5 day multiple ascending dose (MAD) study (EudraCT 2016-003651-30) were prospective, randomized, double-blinded and placebo-controlled and designed to assess the safety, tolerability and pharmacokinetic (PK) characteristics of single and multiple ascending oral doses of 3α-ethynyl-3β-hydroxyandrostan-17-one oxime (IND compound) in healthy male volunteers.
# (§4) The IND compound and allopregnanolone were quantified by UPLC/MS/MS Waters Acquity, C18 column, and Waters XEVO-TQ-S triple quadrupole mass spectrometer. As internal standards D4-[3α-ethynyl-3β-hydroxyandrostan-17-one oxime] and D5-allopregnanolone were used, respectively. For analysis of allopregnanolone oxime-derivatization was used to increase sensitivity. Standard- and QC-samples were prepared into human blank plasma/serum. The detection limit for 3α-ethynyl-3β-hydroxyandrostan-17-one oxime was 1 ng/mL, and for allopregnanolone 0.05 ng/ml (0.15 nmol/L).
# (§5) Pharmacokinetic parameters were evaluated using Non-Compartmental Analysis and the software Phoenix WinNonlin® version 6.3 or later (Pharsight Corporation, U.S.A.). Dose proportionality was for the SAD study based on AUC0->∞ and Cmax, and in the MAD study on steady-state AUCτ. The accumulation ratio between the first and last dose was calculated as (steady-state AUCτ/first dose AUC0->∞). Statistical calculations were with IBM SPSS statistics (Version 24, IBM).
# [4] = Clinical Phase I 5 day multiple ascending dose (MAD) study, pharmacokinetics and safety; type: in vivo, human; conditions: for AUC increase / CMax increase: multiple dose
# Description: as §2, §3
# MAD: 50 mg once daily; 50 mg twice daily (BID), i.e. 100 mg/day; or 100 mg twice daily (BID), i.e. 200 mg/day.
# as §4, §5
# GABA-A receptor [5] = test: Antagonist study: allopregnanolone-induced sedation (visual analogue scale); type: in vivo, human; conditions: responding subjects, VAS scores
# Description: as §1
# [6] = Solubility of 3α-ethynyl-3β-hydroxyandrostan-17-one oxime in aqueous media; type: physicochemical
# [7] = Serum allopregnanolone exposure in the antagonist study; type: in vivo, human
# Description: as §1, §4
# [8] = allopregnanolone + Compound I 3 mg oral
# [9] = allopregnanolone + Compound I 30 mg oral
# [10] = single dose 3 mg versus next lower dose
# [11] = single dose 10 mg versus next lower dose
# [12] = single dose 30 mg versus next lower dose
# [13] = single dose 100 mg versus next lower dose
# [14] = single dose 200 mg versus next lower dose
# [15] = day 1, 100 mg BID versus next lower dose
# [16] = steady-state, day 5, 100 mg BID versus next lower dose
# [17] = allopregnanolone 0.05 mg/kg i.v. + placebo
smiles,measurement,setting,value
"C#C[C@]1(O)CC[C@@]2(C)C(CC[C@@H]3[C@@H]2CC[C@]2(C)/C(=N/O)CC[C@@H]32)C1 (stereo partly drawn) [Compound I, 3α-ethynyl-3β-hydroxyandrostan-17-one oxime]",AUC (ΔSEV),GABA-A receptor [1]; [8],−1592 ± 924 deg/s × min
same,AUC (ΔSEV),GABA-A receptor [1]; [9],−909 ± 798 deg/s × min
same,Concentration that could be dissolved,"[2]; Capric/caprylic glyceride Imwitor 742, heating temperature 60° C.",20000 µg/mL
same,Concentration that could be dissolved,"[2]; Capric/caprylic glyceride Imwitor 742, heating temperature 70° C.",40000 µg/mL
same,Solubility,"[2]; Example 1, Capric/caprylic glycerides, Imwitor 742, 40° C.",20 to 30 mg/g
same,Solubility,"[2]; Example 2, Glyceryl monooleate, Cithrol GMO, melted at 50° C.",8 mg/g
same,Solubility,"[2]; Example 3, Oleoyl macrogol-6 glycerides, Labrafil M1944 CS, approx. 40° C.",5 mg/g
same,Solubility,"[2]; Example 5, Propylenglycol monocaprylate type I, Capryol PGMC, room temperature",15 mg/g
same,Solubility,"[2]; Example 6, Propylenglycol monocaprylate type II, Capryol 90, room temperature",23 mg/g
same,Solubility,"[2]; Example 7, Polyoxyethylene-8 caprylic/capric glycerides, Acconon MC8-2, room temperature",2 mg/g
same,Solubility,"[2]; propylene glycol monolaurate type I (Lauroglycol FCC), oil or lipid, thermodynamic from solid, Example 4, Propylenglycol monolaurate type I, Lauroglycol FCC, room temperature, read-out: Solubility",6000 µg/mL
same,Serious adverse events (SAEs) and dose-limiting toxicity,"[3]; healthy adult males, single dose up to 200 mg",neither serious adverse events (SAEs) nor dose-limiting toxicity was observed
same,Dose proportionality constant β for AUC0-∞,"[3]; human, in vivo, po, 200 mg",1.12
same,Dose proportionality constant β for CMax,"[3]; human, in vivo, po, 200 mg",1.01
same,AUC(0-inf),"[3]; male, human, in vivo, 1 mg",67 ng·h/mL
same,Cmax,"[3]; male, human, in vivo, 1 mg",0.013 µg/mL
same,AUC(0-inf),"[3]; male, human, in vivo, 3 mg",215 ng·h/mL
same,Cmax,"[3]; male, human, in vivo, 3 mg",0.044 µg/mL
same,AUC(0-inf),"[3]; male, human, in vivo, 10 mg",785 ng·h/mL
same,Cmax,"[3]; male, human, in vivo, 10 mg",0.149 µg/mL
same,AUC(0-inf),"[3]; male, human, in vivo, 30 mg",2560 ng·h/mL
same,Cmax,"[3]; male, human, in vivo, 30 mg",0.464 µg/mL
same,AUC(0-inf),"[3]; male, human, in vivo, 100 mg",11900 ng·h/mL
same,Cmax,"[3]; male, human, in vivo, 100 mg",1.53 µg/mL
same,AUC(0-inf),"[3]; male, human, in vivo, 200 mg",25800 ng·h/mL
same,Cmax,"[3]; male, human, in vivo, 200 mg",2.77 µg/mL
same,Tmax,"[3]; male, human, in vivo, po",1 to 2 h
same,AUC increase,[3]; [10],3.2 fold
same,CMax increase,[3]; [10],3.4 fold
same,AUC increase,[3]; [11],3.7 fold
same,CMax increase,[3]; [11],3.4 fold
same,AUC increase,[3]; [12],3.3 fold
same,CMax increase,[3]; [12],3.1 fold
same,AUC increase,[3]; [13],4.6 fold
same,CMax increase,[3]; [13],3.3 fold
same,AUC increase,[3]; [14],2.2 fold
same,CMax increase,[3]; [14],1.8 fold
same,Serious adverse events (SAEs) and dose-limiting toxicity,"[4]; healthy adult males, up to 100 mg every 12 hours for 5 days",neither serious adverse events (SAEs) nor dose-limiting toxicity was observed
same,Increase in AUC0->∞ when the dose was doubled,"[4]; human, in vivo",1.9 times
same,AUC increase,[4]; [15],1.9 fold
same,CMax increase,[4]; [15],1.4 fold
same,AUC increase,[4]; [16],1.9 fold
same,CMax increase,[4]; [16],1.6 fold
same,AUC (ΔSedation),GABA-A receptor [5]; [8],698 ± 332 mm × min
same,AUC (ΔSedation),GABA-A receptor [5]; [9],416 ± 469 mm × min
same,Solubility,"[6]; FaSSIF (fasted-state simulated intestinal fluid), fassif",7 µg/mL
same,Solubility,"[6]; FeSSIF (fed-state simulated intestinal fluid), fessif",19 µg/mL
same,Solubility,"[6]; SGF (simulated gastric fluid), simulated gastric fluid",0.2 µg/mL
same,Solubility,[6]; water,1.5 µg/mL
"CC(=O)[C@H]1CC[C@H]2[C@@H]3CC[C@H]4C[C@H](O)CC[C@]4(C)[C@H]3CC[C@]12C [Allopregnanolone, allopregnanolone, reference compound]",Highest serum level,"[7]; first study time point after i.v. injection 0.05 mg/kg, three study occasions",74 to 82 nM
same,concentration at 10 min,"[7]; human, serum, intravenous, 0.05 mg/kg, 10 min after injection, average",~80 nM
same,AUC (ΔSEV),GABA-A receptor [1]; [17],−3018 ± 656 deg/s × min
same,AUC (ΔSedation),GABA-A receptor [5]; [17],1928 ± 404 mm × min
